The results in this text go back to patent US20120245137A1 (Zalicus Pharmaceuticals Ltd., priority 2009, published 2012).

Common to all, as to format: cell-based
The target of experiment [1] is human α1G T-type channels (Homo sapiens, UniProt O43497). Kind of experiment: T-type calcium channel block, whole cell patch clamp, α1G. Conditions: HEK cells stably expressing human α1G; mainly non-inactivated protocol; values above 10,000 nM represented as 10000. In short, it runs like this:
(§1)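 Using standard patch-clamp, T-type currents were recorded from stably transfected human α1G or α1H HEK 293 cells. Separate non-inactivating and inactivation voltage protocols distinguished resting from voltage-dependent block by locally applied compound in 0.1-0.01% DMSO.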
For orientation: Patch clamp records ionic current or voltage across a cell membrane.

The target in experiment [2] is human α1H T-type channels (Homo sapiens, UniProt O95180). The experiment in a line: T-type calcium channel block, whole cell patch clamp, α1H. Conditions: HEK cells stably expressing human α1H; mainly non-inactivated protocol; values above 10,000 nM represented as 10000. In short, it runs like this: as §1
Experiment [3] concerns the target N-type calcium channel subunits (α1B, α2δ, and β3a) (Homo sapiens, UniProt Q00975). Kind of experiment: Block of Cav2.2 channel, whole cell voltage clamp, manual and PatchXpress. Conditions: Table 5; table follows Assay Example 3 (whole cell voltage clamp / PatchXpress); assay not given. In short, it runs like this:
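Percent block taken as current amplitude ratio with versus without compound, applied in rising doses; IC50 fitted where one cell received multiple doses. Protocol: 50 ms pulses to +20 mV at 0.067 Hz from […] or −90 mV holding; P/n leak subtraction, no junction-potential correction; manual and PatchXpress recordings.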

Chain of human α1H T-type channels (O95180 whole entry): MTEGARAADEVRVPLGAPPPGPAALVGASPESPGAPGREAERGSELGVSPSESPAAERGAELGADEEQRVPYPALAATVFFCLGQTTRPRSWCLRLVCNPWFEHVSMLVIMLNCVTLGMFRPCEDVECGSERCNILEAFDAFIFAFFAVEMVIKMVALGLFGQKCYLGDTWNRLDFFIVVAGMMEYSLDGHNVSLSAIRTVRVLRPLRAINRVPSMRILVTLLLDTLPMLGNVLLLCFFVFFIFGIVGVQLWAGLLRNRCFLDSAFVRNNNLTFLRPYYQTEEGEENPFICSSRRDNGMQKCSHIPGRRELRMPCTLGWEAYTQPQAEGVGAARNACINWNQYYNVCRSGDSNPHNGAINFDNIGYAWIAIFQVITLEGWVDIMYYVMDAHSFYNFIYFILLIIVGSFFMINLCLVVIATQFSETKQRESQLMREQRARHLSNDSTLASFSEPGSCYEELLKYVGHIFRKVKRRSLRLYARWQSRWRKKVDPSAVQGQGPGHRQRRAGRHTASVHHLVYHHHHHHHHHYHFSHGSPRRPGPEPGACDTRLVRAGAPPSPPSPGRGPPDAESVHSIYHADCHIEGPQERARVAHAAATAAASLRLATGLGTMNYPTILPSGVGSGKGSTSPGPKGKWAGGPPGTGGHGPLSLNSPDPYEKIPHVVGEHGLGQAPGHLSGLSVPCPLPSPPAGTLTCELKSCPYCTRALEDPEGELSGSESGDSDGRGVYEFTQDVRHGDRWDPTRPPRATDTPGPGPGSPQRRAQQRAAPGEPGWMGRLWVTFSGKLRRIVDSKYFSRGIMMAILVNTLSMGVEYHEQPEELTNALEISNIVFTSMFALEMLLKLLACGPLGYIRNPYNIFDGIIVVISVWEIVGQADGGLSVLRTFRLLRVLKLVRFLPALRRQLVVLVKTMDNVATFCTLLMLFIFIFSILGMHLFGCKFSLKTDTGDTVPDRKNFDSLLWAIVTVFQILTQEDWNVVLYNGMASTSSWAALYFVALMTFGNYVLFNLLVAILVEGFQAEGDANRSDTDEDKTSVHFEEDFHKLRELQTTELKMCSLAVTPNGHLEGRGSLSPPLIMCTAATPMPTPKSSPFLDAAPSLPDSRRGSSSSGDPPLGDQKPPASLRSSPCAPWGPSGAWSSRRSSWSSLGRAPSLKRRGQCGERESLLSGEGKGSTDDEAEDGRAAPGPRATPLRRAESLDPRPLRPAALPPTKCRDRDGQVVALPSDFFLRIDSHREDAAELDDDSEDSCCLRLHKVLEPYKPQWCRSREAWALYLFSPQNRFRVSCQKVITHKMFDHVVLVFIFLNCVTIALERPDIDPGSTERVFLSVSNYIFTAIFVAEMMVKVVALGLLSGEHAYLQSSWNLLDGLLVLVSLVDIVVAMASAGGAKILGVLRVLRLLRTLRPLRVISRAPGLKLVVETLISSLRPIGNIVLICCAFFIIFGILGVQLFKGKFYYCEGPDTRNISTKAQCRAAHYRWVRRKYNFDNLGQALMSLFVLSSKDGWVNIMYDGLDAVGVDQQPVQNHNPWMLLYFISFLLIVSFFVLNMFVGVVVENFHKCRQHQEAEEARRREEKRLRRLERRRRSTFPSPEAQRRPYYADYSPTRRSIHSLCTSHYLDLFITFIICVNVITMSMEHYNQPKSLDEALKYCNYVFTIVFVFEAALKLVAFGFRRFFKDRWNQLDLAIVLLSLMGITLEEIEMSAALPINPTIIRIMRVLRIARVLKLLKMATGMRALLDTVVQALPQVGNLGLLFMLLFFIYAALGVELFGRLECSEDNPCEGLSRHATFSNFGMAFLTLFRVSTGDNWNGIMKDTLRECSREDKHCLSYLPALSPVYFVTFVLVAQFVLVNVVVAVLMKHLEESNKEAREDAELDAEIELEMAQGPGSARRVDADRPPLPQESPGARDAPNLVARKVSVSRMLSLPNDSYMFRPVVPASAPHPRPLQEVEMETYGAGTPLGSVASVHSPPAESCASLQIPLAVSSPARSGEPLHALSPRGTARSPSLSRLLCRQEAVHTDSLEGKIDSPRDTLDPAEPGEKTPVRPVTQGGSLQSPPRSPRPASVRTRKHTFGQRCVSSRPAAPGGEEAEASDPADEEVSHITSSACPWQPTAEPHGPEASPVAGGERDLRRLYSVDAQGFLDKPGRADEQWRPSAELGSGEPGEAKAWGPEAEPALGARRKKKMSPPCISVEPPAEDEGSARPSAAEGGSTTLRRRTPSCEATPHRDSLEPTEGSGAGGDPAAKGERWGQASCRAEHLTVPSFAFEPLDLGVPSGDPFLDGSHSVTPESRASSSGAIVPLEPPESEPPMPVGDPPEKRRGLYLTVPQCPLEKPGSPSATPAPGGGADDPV
Chain of human α1G T-type channels (O43497 whole entry): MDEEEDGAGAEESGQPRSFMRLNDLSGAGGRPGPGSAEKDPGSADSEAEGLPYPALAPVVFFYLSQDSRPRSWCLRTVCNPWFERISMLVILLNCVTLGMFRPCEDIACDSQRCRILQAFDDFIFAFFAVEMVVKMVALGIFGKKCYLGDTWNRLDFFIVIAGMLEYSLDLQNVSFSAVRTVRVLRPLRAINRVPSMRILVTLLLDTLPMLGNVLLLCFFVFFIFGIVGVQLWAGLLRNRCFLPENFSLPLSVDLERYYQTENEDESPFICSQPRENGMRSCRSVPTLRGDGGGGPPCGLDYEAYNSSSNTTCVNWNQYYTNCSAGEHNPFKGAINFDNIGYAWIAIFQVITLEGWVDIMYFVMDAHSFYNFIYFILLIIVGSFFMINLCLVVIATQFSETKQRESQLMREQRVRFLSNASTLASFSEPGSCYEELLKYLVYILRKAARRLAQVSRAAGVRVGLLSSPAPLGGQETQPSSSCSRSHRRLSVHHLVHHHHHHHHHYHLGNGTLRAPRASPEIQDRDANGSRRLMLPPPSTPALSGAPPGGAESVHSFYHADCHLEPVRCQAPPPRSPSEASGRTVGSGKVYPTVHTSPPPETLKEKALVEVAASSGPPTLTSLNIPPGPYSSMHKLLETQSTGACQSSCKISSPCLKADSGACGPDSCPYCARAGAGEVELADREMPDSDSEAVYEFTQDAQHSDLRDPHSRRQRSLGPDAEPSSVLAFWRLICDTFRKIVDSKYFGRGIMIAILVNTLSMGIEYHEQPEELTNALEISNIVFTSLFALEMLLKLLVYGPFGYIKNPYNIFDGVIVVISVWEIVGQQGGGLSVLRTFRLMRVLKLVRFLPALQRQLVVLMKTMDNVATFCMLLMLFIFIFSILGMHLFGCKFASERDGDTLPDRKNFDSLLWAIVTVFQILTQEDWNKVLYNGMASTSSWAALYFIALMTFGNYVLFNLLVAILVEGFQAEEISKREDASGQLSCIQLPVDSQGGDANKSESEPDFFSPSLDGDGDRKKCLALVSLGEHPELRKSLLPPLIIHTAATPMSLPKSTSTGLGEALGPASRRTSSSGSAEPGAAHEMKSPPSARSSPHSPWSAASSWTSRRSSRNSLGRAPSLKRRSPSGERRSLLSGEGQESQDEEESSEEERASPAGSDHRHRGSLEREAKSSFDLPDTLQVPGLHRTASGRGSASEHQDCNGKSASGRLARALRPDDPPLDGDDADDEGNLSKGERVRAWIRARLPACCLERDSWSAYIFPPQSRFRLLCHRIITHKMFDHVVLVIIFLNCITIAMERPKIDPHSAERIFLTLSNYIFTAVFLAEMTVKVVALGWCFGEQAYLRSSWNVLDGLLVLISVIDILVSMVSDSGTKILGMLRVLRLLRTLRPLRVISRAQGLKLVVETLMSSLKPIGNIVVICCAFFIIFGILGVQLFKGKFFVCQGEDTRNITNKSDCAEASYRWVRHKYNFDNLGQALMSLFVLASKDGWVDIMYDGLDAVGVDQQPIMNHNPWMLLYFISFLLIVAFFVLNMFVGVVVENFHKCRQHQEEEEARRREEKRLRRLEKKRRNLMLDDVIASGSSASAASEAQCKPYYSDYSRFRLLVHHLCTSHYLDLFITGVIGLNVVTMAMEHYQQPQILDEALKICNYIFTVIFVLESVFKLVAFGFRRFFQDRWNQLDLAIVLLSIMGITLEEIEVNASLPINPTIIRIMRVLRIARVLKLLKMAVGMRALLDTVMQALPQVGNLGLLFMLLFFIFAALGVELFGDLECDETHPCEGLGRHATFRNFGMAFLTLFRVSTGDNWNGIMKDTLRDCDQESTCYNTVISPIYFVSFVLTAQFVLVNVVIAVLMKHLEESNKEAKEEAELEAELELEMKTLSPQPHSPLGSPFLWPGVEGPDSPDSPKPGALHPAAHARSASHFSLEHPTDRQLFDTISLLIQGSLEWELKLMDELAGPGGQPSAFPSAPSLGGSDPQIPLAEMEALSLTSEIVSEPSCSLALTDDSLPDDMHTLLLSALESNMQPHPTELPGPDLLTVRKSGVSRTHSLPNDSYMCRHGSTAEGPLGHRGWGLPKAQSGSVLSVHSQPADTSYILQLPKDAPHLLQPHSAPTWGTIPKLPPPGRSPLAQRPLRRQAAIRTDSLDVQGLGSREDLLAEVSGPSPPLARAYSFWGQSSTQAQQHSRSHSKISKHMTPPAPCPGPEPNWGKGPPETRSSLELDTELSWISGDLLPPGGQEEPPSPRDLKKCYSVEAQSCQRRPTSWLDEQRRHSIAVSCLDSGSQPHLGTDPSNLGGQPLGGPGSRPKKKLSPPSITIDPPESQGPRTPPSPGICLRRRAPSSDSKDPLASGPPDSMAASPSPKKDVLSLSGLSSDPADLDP

Take `O=C(N[C@H]1CC[C@](F)(S(=O)(=O)c2cccc(C(F)(F)F)c2)CC1)c1cc(F)cc(Cl)c1` [Compound 81, 3-chloro-5-fluoro-N-((1R,4R)-4-fluoro-4-(3-(trifluoromethyl)phenylsulfonyl)cyclohexyl)benzamide]: the IC50 (in general, the concentration that gives 50% inhibition) turned out to be 0.38 µM in experiment [1], 0.22 µM in experiment [2] and 410 nM in experiment [3].
On the same counts, the results for `COc1cc(F)cc(C(=O)N[C@H]2CC[C@](F)(S(=O)(=O)c3cccc(C(F)(F)F)c3)CC2)c1` [Compound 82, 3-fluoro-N-((1R,4R)-4-fluoro-4-(3-(trifluoromethyl)phenylsulfonyl)cyclohexyl)-5-methoxybenzamide] are 7.49 µM, 1.81 µM and 3000 nM.
As to `O=C(N[C@H]1CC[C@](F)(S(=O)(=O)c2cccc(C(F)(F)F)c2)CC1)c1ccc(F)c(C(F)(F)F)c1` [Compound 83, 4-fluoro-N-((1R,4R)-4-fluoro-4-(3-(trifluoromethyl)phenylsulfonyl)cyclohexyl)-3-(trifluoromethyl)benzamide], the IC50 in experiment [1] was determined as 2.85 µM; in experiment [2], 0.96 µM; in experiment [3], 480 nM.
`O=C(N[C@H]1CC[C@@](F)(S(=O)(=O)c2cccc(C(F)(F)F)c2)CC1)c1cc(C(F)(F)F)ccn1` [Compound 84, N-((1S,4S)-4-fluoro-4-(3-(trifluoromethyl)phenylsulfonyl)cyclohexyl)-4-(trifluoromethyl)picolinamide]: the figures for the IC50 in experiment [1], in experiment [2] and in experiment [3] were 2.87 µM, 0.65 µM and 310 nM, respectively.
On the same counts, the results for `O=C(N[C@H]1CC[C@@](F)(S(=O)(=O)c2cccc(C(F)(F)F)c2)CC1)c1nc2cc(C(F)(F)F)ccc2[nH]1` [Compound 85, N-((1S,4S)-4-fluoro-4-(3-(trifluoromethyl)phenylsulfonyl)cyclohexyl)-5-(trifluoromethyl)-1H-benzo[d]imidazole-2-carboxamide] are 2.15 µM, 1.23 µM and 850 nM.
With `O=C(N[C@H]1CC[C@@](F)(S(=O)(=O)c2cccc(C(F)(F)F)c2)CC1)c1cc(F)cc(Cl)c1` [Compound 86, 3-chloro-5-fluoro-N-((1S,4S)-4-fluoro-4-(3-(trifluoromethyl)phenylsulfonyl)cyclohexyl)benzamide], the IC50 in experiment [1] is > 10 µM; in experiment [2], 1.93 µM; in experiment [3], 190 nM.
With `COc1cc(F)cc(C(=O)N[C@H]2CC[C@@](F)(S(=O)(=O)c3cccc(C(F)(F)F)c3)CC2)c1` [Compound 87, 3-fluoro-N-((1S,4S)-4-fluoro-4-(3-(trifluoromethyl)phenylsulfonyl)cyclohexyl)-5-methoxybenzamide], the IC50 in experiment [1] came to 6.44 µM; in experiment [2], 2.1 µM; in experiment [3] it was 240 nM.
With `CN(C(=O)CN[C@H]1CC[C@@](F)(S(=O)(=O)c2cccc(C(F)(F)F)c2)CC1)C(C)(C)C` [Compound 88, N-tert-butyl-2-((1S,4S)-4-fluoro-4-(3-(trifluoromethyl)phenylsulfonyl)cyclohexylamino)-N-methylacetamide], the IC50 in experiment [1] is > 10 µM; in experiment [2], 3.03 µM; in experiment [3], 70 nM.
Consider `CC1(NC(=O)CN[C@H]2CC[C@@](F)(S(=O)(=O)c3cccc(C(F)(F)F)c3)CC2)CCC1` [Compound 89, 2-((1S,4S)-4-fluoro-4-(3-(trifluoromethyl)phenylsulfonyl)cyclohexylamino)-N-(1-methylcyclobutyl)acetamide], for which the figures for the IC50 in experiment [1], in experiment [2] and in experiment [3] were 1.71 µM, 0.99 µM and 120 nM, respectively.
In the same order, the values of `CC1(NC(=O)CN[C@H]2CC[C@](F)(S(=O)(=O)c3cccc(C(F)(F)F)c3)CC2)CCC1` [Compound 91, 2-((1R,4R)-4-fluoro-4-(3-(trifluoromethyl)phenylsulfonyl)cyclohexylamino)-N-(1-methylcyclobutyl)acetamide] are 2.45 µM, 0.94 µM and 410 nM.
As to `CC1(NC(=O)c2ccc(F)c(C(F)(F)F)c2)CCC(F)(S(=O)(=O)c2cccc(C(F)(F)F)c2)CC1` (stereo not drawn) [Compound 92, 4-fluoro-N-(4-fluoro-1-methyl-4-(3-(trifluoromethyl)phenylsulfonyl)cyclohexyl)-3-(trifluoromethyl)benzamide], the IC50 in experiment [1] is 2.23 µM; in experiment [2] it was 0.64 µM; in experiment [3], 330 nM.
In the same order, the values of `COc1cc(F)cc(C(=O)NC2(C)CCC(F)(S(=O)(=O)c3cccc(C(F)(F)F)c3)CC2)c1` (stereo not drawn) [Compound 94, 3-fluoro-N-(4-fluoro-1-methyl-4-(3-(trifluoromethyl)phenylsulfonyl)cyclohexyl)-5-methoxybenzamide] are > 10 µM, > 10 µM and 230 nM.
As for `CC(C)(C)OC(=O)N[C@H]1CC[C@H](S(=O)(=O)c2cccc(C(F)(F)F)c2)CC1` [Compound 95, tert-butyl(1R,4R)-4-(3-(trifluoromethyl)phenylsulfonyl) cyclohexylcarbamate], the results for the IC50 in experiment [1], in experiment [2] and in experiment [3] were 6.97 µM, 2.15 µM and 1640 nM, respectively.
As for `CC(C)(C)OC(=O)N[C@H]1CC[C@@H](S(=O)(=O)c2cccc(C(F)(F)F)c2)CC1` [Compound 96, tert-butyl(1S,4S)-4-(3-(trifluoromethyl)phenylsulfonyl) cyclohexylcarbamate], the IC50 is > 10 µM in experiment [1], 3.82 µM in experiment [2] and 430 nM in experiment [3].
For `O=C(CNCC1CC(S(=O)(=O)c2cccc(C(F)(F)F)c2)C1)NC1CCCCC1` (stereo not drawn) [Compound 97, N-cyclohexyl-2-((3-(3-(trifluoromethyl)phenylsulfonyl)cyclobutyl)methylamino)acetamide], the IC50 in experiment [1] is 2.14 µM; in experiment [2], > 10 µM; in experiment [3], 490 nM.
In the case of `CC(C)(C)NC(=O)CNC1(C)CCC(F)(S(=O)(=O)c2cccc(C(F)(F)F)c2)CC1` (stereo not drawn) [Compound 98, N-tert-butyl-2-(4-fluoro-1-methyl-4-(3-(trifluoromethyl)phenylsulfonyl)cyclohexylamino)acetamide], the IC50 in experiment [1] was > 10 µM; in experiment [2], > 10 µM; in experiment [3], 680 nM.
As to `O=C(N[C@H]1CC[C@H](CS(=O)(=O)c2cccc(C(F)(F)F)c2)CC1)c1ccc(F)c(C(F)(F)F)c1` [Compound 99, 4-fluoro-3-(trifluoromethyl)-N-((1R,4R)-4-((3-(trifluoromethyl)phenylsulfonyl)methyl)cyclohexyl)benzamide], the figures for the IC50 in experiment [1], in experiment [2] and in experiment [3] were > 10 µM, > 10 µM and 3750 nM, respectively.
As to `COc1cc(F)cc(C(=O)N[C@H]2CC[C@H](CS(=O)(=O)c3cccc(C(F)(F)F)c3)CC2)c1` [Compound 100, 3-fluoro-5-methoxy-N-((1R,4R)-4-((3-(trifluoromethyl)phenylsulfonyl)methyl)cyclohexyl)benzamide], the IC50 in experiment [1] turned out to be 5.39 µM; in experiment [2] it was 1.79 µM; in experiment [3], 2320 nM.
For `Cn1nc(C(F)(F)F)cc1C(=O)N[C@H]1CC[C@H](CS(=O)(=O)c2cccc(C(F)(F)F)c2)CC1` [Compound 102, 1-methyl-3-(trifluoromethyl)-N-((1R,4R)-4-((3-(trifluoromethyl)phenylsulfonyl)methyl)cyclohexyl)-1H-pyrazole-5-carboxamide], the IC50 was > 10 µM in experiment [1], > 10 µM in experiment [2] and 630 nM in experiment [3].
Take `Cn1cc(C(=O)N[C@H]2CC[C@H](CS(=O)(=O)c3cccc(C(F)(F)F)c3)CC2)c(C(F)(F)F)n1` [Compound 106, 1-methyl-3-(trifluoromethyl)-N-((1R,4R)-4-((3-(trifluoromethyl)phenylsulfonyl)methyl)cyclohexyl)-1H-pyrazole-4-carboxamide]: the IC50 is 2.18 µM in experiment [1], > 10 µM in experiment [2] and 1940 nM in experiment [3].
For the compound `O=C(N[C@H]1CC[C@H](CS(=O)(=O)c2cccc(C(F)(F)F)c2)CC1)c1cc(-c2ccc(F)cc2)n[nH]1` [Compound 108, 3-(4-fluorophenyl)-N-((1R,4R)-4-((3-(trifluoromethyl)phenylsulfonyl)methyl)cyclohexyl)-1H-pyrazole-5-carboxamide], the IC50 in experiment [1] was 6.3 µM; in experiment [2] it was > 10 µM; in experiment [3] it was 720 nM.
As for `O=C(CN[C@H]1CC[C@H](CS(=O)(=O)c2cccc(C(F)(F)F)c2)CC1)NCC(F)(F)F` [Compound 113, N-(2,2,2-trifluoroethyl)-2-((1R,4R)-4-((3-(trifluoromethyl)phenylsulfonyl)methyl)cyclohexylamino)acetamide], the IC50 is > 10 µM in experiment [1], 5.35 µM in experiment [2] and 130 nM in experiment [3].
On to `CC(C)(C)NC(=O)CN[C@H]1CC[C@H](CS(=O)(=O)c2cccc(C(F)(F)F)c2)CC1` [Compound 114, N-tert-butyl-2-((1R,4R)-4-((3-(trifluoromethyl)phenylsulfonyl)methyl)cyclohexylamino)acetamide], for which the IC50 in experiment [1] is > 10 µM; in experiment [2] it was > 10 µM; in experiment [3], 510 nM.
`CN(C(=O)CN[C@H]1CC[C@H](CS(=O)(=O)c2cccc(C(F)(F)F)c2)CC1)C(C)(C)C` [Compound 115, N-tert-butyl-N-methyl-2-((1R,4R)-4-((3-(trifluoromethyl)phenylsulfonyl)methyl)cyclohexylamino)acetamide]: the IC50 in experiment [1] is > 10 µM; in experiment [2] it was > 10 µM; in experiment [3], 650 nM.
